Target: Substance-P receptor (Homo sapiens, UniProt P25103)
Experiment: Binding affinity towards human Tachykinin receptor 1 by the displacement of [125I]- Substance P in CHO Cells

Substance-P receptor, sequence (P25103 whole entry): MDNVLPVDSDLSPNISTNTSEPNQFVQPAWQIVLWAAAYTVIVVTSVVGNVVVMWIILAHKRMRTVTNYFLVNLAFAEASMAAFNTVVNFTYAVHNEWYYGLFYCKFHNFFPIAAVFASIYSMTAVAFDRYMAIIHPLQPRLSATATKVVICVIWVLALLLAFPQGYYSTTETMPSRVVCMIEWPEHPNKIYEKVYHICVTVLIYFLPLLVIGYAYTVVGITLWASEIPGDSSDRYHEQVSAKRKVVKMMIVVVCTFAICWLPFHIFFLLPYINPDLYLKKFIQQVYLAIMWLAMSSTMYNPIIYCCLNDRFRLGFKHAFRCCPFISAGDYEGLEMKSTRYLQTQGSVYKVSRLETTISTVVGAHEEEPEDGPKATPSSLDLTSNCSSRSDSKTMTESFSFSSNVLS

| IC50 [µM] | SMILES |
| --- | --- |
| 1.53 | FC(F)(F)c1cc(CC[C@@H]2OCCN[C@@H]2c2ccccc2)cc(C(F)(F)F)c1 |
| 2.53 | O=C1CO[C@@H](/C=C/c2cc(C(F)(F)F)cc(C(F)(F)F)c2)[C@@H](c2ccccc2)N1 |
| 0.087 | FC(F)(F)c1cc(C2OC2[C@@H]2OCCN[C@@H]2c2ccccc2)cc(C(F)(F)F)c1 (some centres undefined) |
| 1.13 | FC(F)(F)c1cc(CC[C@H]2OCCN[C@@H]2c2ccccc2)cc(C(F)(F)F)c1 |
